Read-outs that look alike come from different tables or passages of the source.
Tests used:
[1] = target: T1, FGF-R1C ECD (Homo sapiens, UniProt P11362); test: biochemical
T1 sequence (P11362 22-376 limits assumed): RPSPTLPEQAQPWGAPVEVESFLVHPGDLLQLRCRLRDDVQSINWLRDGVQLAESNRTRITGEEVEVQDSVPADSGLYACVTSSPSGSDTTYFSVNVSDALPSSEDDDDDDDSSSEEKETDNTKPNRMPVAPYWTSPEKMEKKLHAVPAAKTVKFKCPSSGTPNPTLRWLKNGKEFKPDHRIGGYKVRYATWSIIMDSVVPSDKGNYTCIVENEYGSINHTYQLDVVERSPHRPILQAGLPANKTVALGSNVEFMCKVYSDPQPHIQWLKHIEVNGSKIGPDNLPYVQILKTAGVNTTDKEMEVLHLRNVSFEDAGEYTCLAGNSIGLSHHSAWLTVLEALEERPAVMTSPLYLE
Procedure, shortened: (§1)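 Biolayer interferometry with biotinylated FGF-R ECD on streptavidin biosensors in PBS pH 7.4, 0.05% Tween-20, 0.01% BSA. Multi-concentration: purified peptide dilution series fitted to a multi-point KD model.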

[2] = target: T2, FGF-R3C ECD (Homo sapiens, UniProt P22607); test: biochemical
T2 sequence (P22607 23-375 limits assumed): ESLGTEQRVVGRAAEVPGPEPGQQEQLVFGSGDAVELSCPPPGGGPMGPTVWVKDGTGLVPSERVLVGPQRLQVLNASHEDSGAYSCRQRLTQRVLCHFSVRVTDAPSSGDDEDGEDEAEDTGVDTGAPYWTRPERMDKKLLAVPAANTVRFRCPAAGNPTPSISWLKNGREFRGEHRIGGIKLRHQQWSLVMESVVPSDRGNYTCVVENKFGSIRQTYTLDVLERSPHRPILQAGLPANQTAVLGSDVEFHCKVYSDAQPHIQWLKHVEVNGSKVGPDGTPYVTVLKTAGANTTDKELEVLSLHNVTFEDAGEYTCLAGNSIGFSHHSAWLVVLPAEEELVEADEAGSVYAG
Procedure, shortened: as §1

[3] = target: T3, FGF-R4 ECD (Homo sapiens, UniProt P22455); test: multi-concentration BLI of purified peptides; type: binding; conditions: purified NNK library peptides
T3 construct: DNA constructs for the extracellular domain (ECD) of human FGF-; HPC4 (C); made in house; host or cells: HEK 293-6E
T3 sequence (P22455 22-369 limits assumed): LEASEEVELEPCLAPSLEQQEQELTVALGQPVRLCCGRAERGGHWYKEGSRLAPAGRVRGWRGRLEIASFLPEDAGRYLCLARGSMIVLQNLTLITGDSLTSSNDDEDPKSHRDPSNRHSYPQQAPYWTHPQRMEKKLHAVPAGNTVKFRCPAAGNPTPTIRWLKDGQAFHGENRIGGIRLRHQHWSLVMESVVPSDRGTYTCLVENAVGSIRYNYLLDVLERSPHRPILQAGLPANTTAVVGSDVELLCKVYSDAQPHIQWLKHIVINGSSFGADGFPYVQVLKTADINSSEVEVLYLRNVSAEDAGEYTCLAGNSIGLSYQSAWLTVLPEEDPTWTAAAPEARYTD
Procedure, shortened: as §1

[4] = target: T3, FGF-R4 ECD; test: single concentration BLI of crude peptides; type: binding; conditions: crude NNK peptides, single concentration BLI (Table S3); read-out: KD (4)
Procedure, shortened: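 Biotinylated FGF-R ECD on streptavidin biosensors was dipped into ~1 μM crude peptide in PBS pH7.4 with 0.05% Tween-20 and 0.01% BSA for association, then into buffer for dissociation, and followed by BLI. Fitted KD values were adjusted for peptide concentration measured by UPLC-CAD.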

[5] = target: T4, FGFR1c/KLB (Fc-fused human FGF-R1alpha(IIIc) with beta-klotho) (Homo sapiens, UniProt P11362); test: AlphaScreen FGF21 competitive binding assay
T4 sequence (P11362 22-376 limits assumed): T1 sequence (P11362 22-376 limits assumed)
Method: Alphascreen binding assay
(§2) The competitive binding assay was carried out according to the methods detailed in Hansen. et al using
(§3) AlphaScreen.3 All reagents and samples were prepared in assay buffer: 40mM Hepes, 140mM NaCl, 1mM
(§4) CaCl2, 0,05% Tween20, pH=7.5, 0.1% BSA. In brief, recombinant human beta-klotho (R&D Systems) was
(§5) preincubated for 60 min with the ectodomain, either Fc-fused human FGF-R1alpha(IIIc), FGF-R3alpha(IIIc)
(§6) or FGF-R4 (R&D Systems), and the mixture was added to the test peptides in OptiPlate™ (PerkinElmer).
(§7) Biotinylated FGF21 and heparin were further added to each well. AlphaScreen bead mix (1:1 mix of Protein
(§8) A acceptor beads/ streptavidin-coated donor beads, PerkinElmer) were added to each well incubated
(§9) overnight at RT in the dark, and measured on a plate reader (Envision). Assays were carried out in triplicates
(§10) with concentrations ranging from 3, 10, 30, 100, 300 ,1000 and 3000 nM of peptide. No peptide control
(§11) (media only) was used as a negative control, and unlabeled FGF21 and FGF1 as positive control.
(§12) competing with biotinylated natural FGF21 ligand.

[6] = target: T5, FGFR3c/BKL (Fc-fused human FGF-R3alpha(IIIc) with beta-klotho) (Homo sapiens, UniProt P22607); test: AlphaScreen FGF21 competitive binding assay
T5 sequence (P22607 23-375 limits assumed): T2 sequence (P22607 23-375 limits assumed)
Method: Alphascreen binding assay
as §2, §3, §4, §5, §6, §7, §8, §9, §10, §11, §12

[7] = target: T6, FGFR4/KLB (Fc-fused human FGF-R4 with beta-klotho) (Homo sapiens, UniProt P22455); test: AlphaScreen FGF21 competitive binding assay
T6 sequence (P22455 22-369 limits assumed): T3 sequence (P22455 22-369 limits assumed)
Method: Alphascreen binding assay
as §2, §3, §4, §5, §6, §7, §8, §9, §10, §11, §12

[8] = target: T1, FGF-R1C ECD; test: biochemical; type: binding; design: DNA constructs for the extracellular domain (ECD) of human FGF-; HPC4 (C); made in house; host or cells: HEK 293-6E
Procedure, shortened: as §1

[9] = target: T2, FGF-R3C ECD; test: biochemical; type: binding; design: DNA constructs for the extracellular domain (ECD) of human FGF-; HPC4 (C); made in house; host or cells: HEK 293-6E
Procedure, shortened: as §1

CSCC[C@H](NC(C)=O)C(=O)N[C@H]1CSSC[C@@H](C(=O)NCC(=O)N[C@@H](CO)C(=O)NCC(=O)N[C@@H](CO)C(=O)N[C@@H](CC(=O)O)C(=O)N[C@@H](Cc2ccc(O)cc2)C(=O)N[C@@H](CCCCN)C(=O)N[C@@H](CC(=O)O)C(=O)N[C@@H](CC(=O)O)C(=O)N[C@@H](CC(=O)O)C(=O)N[C@@H](CC(=O)O)C(=O)N[C@@H](CCCCN)C(N)=O)NC(=O)[C@H](CO)NC(=O)[C@H](CCCNC(=N)N)NC(=O)[C@H](Cc2ccccc2)NC(=O)[C@H](C)NC(=O)[C@H](CC(C)C)NC(=O)[C@H](Cc2ccc(O)cc2)NC(=O)[C@H](Cc2ccc(O)cc2)NC(=O)[C@H](C)NC(=O)[C@H](CC(C)C)NC(=O)[C@H](Cc2c[nH]cn2)NC1=O [4.3]
Kd [1]: > 1000 nM
Kd [2]: > 1000 nM
Kd [3]: 86 nM
Kd [4]: 58 nM
IC50 [5]: > 1000 nM
IC50 [6]: > 1000 nM
IC50 [7]: 508 nM
Kd [8]: > 10000 nM
Kd [9]: > 10000 nM

CSCC[C@H](NC(C)=O)C(=O)N[C@H]1CSSC[C@@H](C(=O)NCC(=O)N[C@@H](CO)C(=O)NCC(=O)N[C@@H](CO)C(=O)N[C@@H](CC(=O)O)C(=O)N[C@@H](Cc2ccc(O)cc2)C(=O)N[C@@H](CCCCN)C(=O)N[C@@H](CC(=O)O)C(=O)N[C@@H](CC(=O)O)C(=O)N[C@@H](CC(=O)O)C(=O)N[C@@H](CC(=O)O)C(=O)N[C@@H](CCCCN)C(N)=O)NC(=O)[C@H](CC(C)C)NC(=O)[C@H](Cc2c[nH]c3ccccc23)NC(=O)[C@H](C)NC(=O)[C@H](Cc2ccccc2)NC(=O)[C@H](Cc2ccccc2)NC(=O)[C@H](Cc2c[nH]c3ccccc23)NC(=O)[C@@H]2CCCN2C(=O)[C@H](Cc2c[nH]cn2)NC(=O)[C@H](CCCCN)NC(=O)[C@H](Cc2ccccc2)NC1=O [4.5]
Kd [1]: > 1000 nM
Kd [2]: > 1000 nM
Kd [3]: 233 nM
Kd [4]: 35 nM
IC50 [5]: > 1000 nM
IC50 [6]: > 1000 nM
IC50 [7]: 284 nM
Kd [8]: > 10000 nM
Kd [9]: > 10000 nM

CC[C@H](C)[C@@H]1NC(=O)[C@@H](NC(=O)[C@H](CCSC)NC(C)=O)CSSC[C@@H](C(=O)NCC(=O)N[C@@H](CO)C(=O)NCC(=O)N[C@@H](CO)C(=O)N[C@@H](CC(=O)O)C(=O)N[C@@H](Cc2ccc(O)cc2)C(=O)N[C@@H](CCCCN)C(=O)N[C@@H](CC(=O)O)C(=O)N[C@@H](CC(=O)O)C(=O)N[C@@H](CC(=O)O)C(=O)N[C@@H](CC(=O)O)C(=O)N[C@@H](CCCCN)C(N)=O)NC(=O)[C@H](Cc2ccccc2)NC(=O)[C@H](CCCNC(=N)N)NC(=O)[C@H](CCCCN)NC(=O)[C@H](Cc2c[nH]cn2)NC(=O)[C@H](C)NC(=O)[C@H](CC(C)C)NC(=O)[C@H](Cc2ccccc2)NC(=O)[C@H](CCSC)NC(=O)[C@H](CCCCN)NC1=O [4.6]
Kd [1]: > 1000 nM
Kd [2]: > 1000 nM
Kd [3]: 358 nM
Kd [4]: 97 nM
IC50 [5]: > 1000 nM
IC50 [6]: > 1000 nM
IC50 [7]: > 1000 nM
Kd [8]: > 10000 nM
Kd [9]: > 10000 nM

CSCC[C@H](NC(C)=O)C(=O)N[C@H]1CSSC[C@@H](C(=O)NCC(=O)N[C@@H](CO)C(=O)NCC(=O)N[C@@H](CO)C(=O)N[C@@H](CC(=O)O)C(=O)N[C@@H](Cc2ccc(O)cc2)C(=O)N[C@@H](CCCCN)C(=O)N[C@@H](CC(=O)O)C(=O)N[C@@H](CC(=O)O)C(=O)N[C@@H](CC(=O)O)C(=O)N[C@@H](CC(=O)O)C(=O)N[C@@H](CCCCN)C(N)=O)NC(=O)[C@H](C(C)C)NC(=O)[C@H](CC(C)C)NC(=O)[C@H](CC(C)C)NC(=O)[C@H](Cc2c[nH]c3ccccc23)NC(=O)[C@H](Cc2ccc(O)cc2)NC(=O)[C@H](Cc2ccccc2)NC(=O)[C@H](CC(C)C)NC(=O)[C@H](CCCNC(=N)N)NC(=O)[C@H](CCC(=O)O)NC(=O)[C@@H]2CCCN2C1=O [4.7]
Kd [1]: > 1000 nM
Kd [2]: > 1000 nM
Kd [3]: 443 nM
Kd [4]: 68 nM
IC50 [5]: > 1000 nM
IC50 [6]: > 1000 nM
IC50 [7]: > 1000 nM
Kd [8]: > 10000 nM
Kd [9]: > 10000 nM

CC[C@H](C)[C@@H]1NC(=O)[C@H](Cc2c[nH]c3ccccc23)NC(=O)[C@@H]2CCCN2C(=O)[C@H](CCC(=O)O)NC(=O)[C@@H](NC(=O)[C@H](CCSC)NC(C)=O)CSSC[C@@H](C(=O)NCC(=O)N[C@@H](CO)C(=O)NCC(=O)N[C@@H](CO)C(=O)N[C@@H](CC(=O)O)C(=O)N[C@@H](Cc2ccc(O)cc2)C(=O)N[C@@H](CCCCN)C(=O)N[C@@H](CC(=O)O)C(=O)N[C@@H](CC(=O)O)C(=O)N[C@@H](CC(=O)O)C(=O)N[C@@H](CC(=O)O)C(=O)N[C@@H](CCCCN)C(N)=O)NC(=O)[C@H](CCCCN)NC(=O)[C@H](CCCCN)NC(=O)[C@H](CC(C)C)NC(=O)[C@H](C(C)C)NC(=O)[C@H](CCCCN)NC(=O)[C@H](Cc2ccc(O)cc2)NC(=O)[C@H]([C@@H](C)CC)NC(=O)[C@H]([C@@H](C)O)NC1=O [4.8]
Kd [1]: > 1000 nM
Kd [2]: > 1000 nM
Kd [3]: 478 nM
Kd [4]: 287 nM
IC50 [5]: > 1000 nM
IC50 [6]: > 1000 nM
IC50 [7]: 945 nM
Kd [8]: > 10000 nM
Kd [9]: 1250 nM

Source: article PMC10763615, “Identification and engineering of potent cyclic peptides with selective or promiscuous binding through biochemical profiling and bioinformatic data analysis” (RSC Chemical Biology, 2023)
